Values after ≈ are worked out from the molar mass of the structure shown. Where a name gives a salt, the structure may show the parent alone. Read-outs that look alike come from different tables or passages of the source.
Assays:
[1] = tested on: T.b. brucei Lab 110 EATRO; test: Growth of bloodform trypanosomes in vitro, IC50 at 48 h; assay type: cell-based, Trypanosoma brucei brucei; conditions: for IC50: Trypanosoma brucei
Source text: (§1) Trypanosome (a) IN VITRO drug screening method: 14 clinical isolates of Trypanosoma brucei rhodesiense (agent of East African Sleeping Sickness) many of which are refractory to standard trypanocides such as diamidines and melarsoprol (Bacchi et al., 1990, Antimicrob Agents Chemother 34, 1183-1188) are maintained as laboratory infections in rats and mice and as frozen stabilates of blood forms. Six of these isolates have been cultivated as blood forms in modified Iscove's medium (Hirumi & Hirumi, 1989, J Parasitol 75, 985-989). These cultivated blood forms are fully infective and serve as the initial screen for trypanocides based on a 24 well culture plate system and readings done on duplicate wells using a Coulter Counter (Bacchi and Yartlett, 1993, Acta Tropica 54, 225-236; Bacchi et al., 1996, Antimicrob Agents Chemother 4, 1448-1453).
(§2) The trypanosomes studied were Trypanosoma brucei brucei Lab 110 EATRO, which is pathogenic to cattle and other livestock, and several strains of Trypanosoma brucei rhodesiense, a parasite of humans, domestic and wild animals. Strains of T. b. rhodesiense included drug resistant clinical isolates KETRI 243 and 269 and KETRI 243 As-10-3, a highly melarsen- and diamidine-resistant clone of KETRI 243. The 19 extracts were tested in an in vitro screen using a semi-defined medium for growth of bloodstream trypomastigotes at 37° C. (Hirumi & Hirumi, 1989, supra) to determine IC50 values (Bacchi et al., 1996, supra).
(§3) Inhibitory of cholesterol synthesis, metabolism, and/or excretion described above in the detailed description were tested versus trypanosome isolates grown as bloodforms in HMI-18 medium containing 10% fetal bovine serum.

[2] = tested on: T.b. rhodesiense KETRI 243; test: as above; assay type: cell-based, Trypanosoma brucei rhodesiense; conditions: for IC50: Trypanosoma brucei, RHODESIENSE
Source text: as §1, with “1448-1453). This screen has proven highly reproducible, needs minimal drug since the volume is limited (1 ml medium/well) and is complete after 48 h. It has proven to be highly predictive of in vivo activity (e.g., Brun et al., 1996, Antimicrob Agents Chemother 40, 1442-1447; Bacchi et al., 1996, supra).” for “1448-1453).”
as §2
as §3, with “Numerous similarities in leishmanial and trypanosomal lipid uptake and metabolism may explain common natural product drug susceptibility. Inhibitory” for “Inhibitory”

[3] = tested on: T.b. rhodesiense KETRI 269; test: as above; assay type: cell-based, Trypanosoma brucei rhodesiense; conditions: for IC50: Trypanosoma brucei, RHODESIENSE
Source text: as §1, with “1448-1453). This screen has proven highly reproducible, needs minimal drug since the volume is limited (1 ml medium/well) and is complete after 48 h. It has proven to be highly predictive of in vivo activity (e.g., Brun et al., 1996, Antimicrob Agents Chemother 40, 1442-1447; Bacchi et al., 1996, supra).” for “1448-1453).”
as §2
as §3, with “Numerous similarities in leishmanial and trypanosomal lipid uptake and metabolism may explain common natural product drug susceptibility. Inhibitory” for “Inhibitory”

[4] = tested on: T.b. rhodesiense KETRI 243 As-10-3; test: as above; assay type: cell-based; conditions: Trypanosoma brucei
Source text: as §1, with “1448-1453). This screen has proven highly reproducible, needs minimal drug since the volume is limited (1 ml medium/well) and is complete after 48 h. It has proven to be highly predictive of in vivo activity (e.g., Brun et al., 1996, Antimicrob Agents Chemother 40, 1442-1447; Bacchi et al., 1996, supra).” for “1448-1453).”
as §2
as §3, with “Numerous similarities in leishmanial and trypanosomal lipid uptake and metabolism may explain common natural product drug susceptibility. Inhibitory” for “Inhibitory”

Squalene Oxidase = Squalene Oxidase (Homo sapiens, UniProt Q14534); conditions: Abe et al, 1994; cited from earlier work
Sequence of Squalene Oxidase (Q14534 whole entry): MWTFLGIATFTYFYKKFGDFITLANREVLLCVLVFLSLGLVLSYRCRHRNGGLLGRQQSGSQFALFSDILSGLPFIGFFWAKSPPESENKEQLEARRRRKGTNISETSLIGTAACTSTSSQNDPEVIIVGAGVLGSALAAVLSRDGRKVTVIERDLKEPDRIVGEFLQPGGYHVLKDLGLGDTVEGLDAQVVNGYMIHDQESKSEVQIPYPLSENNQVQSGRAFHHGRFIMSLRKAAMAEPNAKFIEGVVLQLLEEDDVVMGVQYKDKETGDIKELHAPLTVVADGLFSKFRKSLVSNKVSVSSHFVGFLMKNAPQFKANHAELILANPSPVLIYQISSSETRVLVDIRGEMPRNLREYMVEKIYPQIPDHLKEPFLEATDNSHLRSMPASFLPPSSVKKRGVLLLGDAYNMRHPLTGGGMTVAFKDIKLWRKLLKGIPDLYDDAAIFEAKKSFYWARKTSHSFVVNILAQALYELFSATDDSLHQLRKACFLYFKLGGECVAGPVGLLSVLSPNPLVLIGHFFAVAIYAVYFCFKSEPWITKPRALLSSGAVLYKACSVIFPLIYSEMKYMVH

[5] = tested on: macrophage cholesterol synthesis; conditions: cited from earlier work
Squalene Synthetase = conditions: Abe et al, 1994; cited from earlier work
J-774 A.1 macrophages = conditions: 10 uM; not from mevalonate; cited from earlier work
Leishmania = test: Mevalonate as nutritional supplement of in vitro cultures; assay type: cell-based; conditions: mevalonate-fed cultures
Description: To investigate this, we used ^14C-mevalonic acid to determine rate of incorporation by Leishmania (1.0 ng/hr/108 parasites at 25° C, using the respirometric assay. We also looked at mevalonic acid catabolism and found mevalonate is sparingly metabolized to CO2 (less than 1/25 the rate of aspartic acid metabolism, a most rapidly catabolized amino acid, Jackson, et al., 1989, Am J Trop Med Hyg 41, 318-330) even when the promastigotes are maintained under starvation condition for 30 minutes. When mevalonate was added as a nutritional supplement the parasites grew profusely but less rapidly than parallel unsupplemented control cultures. […] Given these preliminary observations: it appears Leishmania (a) incorporate mevalonic acid readily from their environment; (b) catabolism is spared even under starvation conditions; and (c) mevalonic acid can act as a nutritional supplement in vitro.

[6] = Table 7, HMI-18 medium, 10% fetal bovine serum, 48 h
[7] = Table 7, HMI-18 medium, 10% fetal bovine serum, 48 h, read-out: IC50 Lab 110 EATRO
[8] = Table 7, HMI-18 medium, 10% fetal bovine serum, 48 h, read-out: IC50 243
[9] = Table 7, HMI-18 medium, 10% fetal bovine serum, 48 h, read-out: IC50 269
[10] = read-out: IC50 KETRI 243 As-103

CC(C)n1c(/C=C/C(O)CC(O)CC(=O)O)c(-c2ccc(F)cc2)c2ccccc21 (racemic) [Lescol, 6-Heptenoic acid, 3,5-dihydro-7-[3-(4-fluorophenyl)-1-(1-methylethyl)-1H-indol-2-yl-]-[R*,S*-(E)]-, (+−)-]
IC50 Lab 110 EATRO [1, 6]: >100 µg/mL
IC50 243 [2, 6]: >100 µg/mL

CC[C@H](C)C(=O)O[C@H]1C[C@@H](C)C=C2C=C[C@H](C)[C@H](CC[C@@H]3C[C@@H](O)CC(=O)O3)[C@H]21 (relative stereo) [Mevacor, Butanoic acid, 2-methyl-,1,2,3,7,8,8a-hexahydro-3,7-dimethyl-8-[2-(tetrahydro-4-hydroxy-6-oxo-2H-pyran-2-yl)ethyl]-1-naphthalenyl ester,[1S[1alpha(R*),3alpha,7beta,8beta(2S*,4S*), 8abeta]]-]
IC50 Lab 110 EATRO [1]: 3.3 µg/mL (≈ 8.16 µM)
IC50 243 [2, 6]: 4.4 µg/mL (≈ 10.9 µM)
IC50 269 [3, 6]: 6.9 µg/mL (≈ 17.1 µM)

CCC(C)(C)C(=O)O[C@H]1C[C@@H](C)C=C2C=C[C@H](C)[C@H](CC[C@@H]3C[C@@H](O)CC(=O)O3)[C@H]21 (relative stereo) [Zocor, [1S-[1-alpha(beta-S*,delta-S*), 2-alpha, 6-alpha,8-beta(R*),8a-alpha]]2,2-dimethylbutanoic acid 1,2,3,7,8,8a-hexahydro-3,7-dimethyl-8-[2-(tetrahydro-4-hydroxy-6-oxo-2H-pyran-2-yl)ethyl]-1-naphthalenyl ester]
IC50 [1, 7]: 1.33 µg/mL (≈ 3.18 µM)
IC50 [2, 8]: 12.9 µg/mL (≈ 30.8 µM)
IC50 [3, 9]: 7 µg/mL (≈ 16.7 µM)

CCOC(=O)C(C)(C)Oc1ccc(Cl)cc1 [Atromid-S, Propanoic acid, 2-(4-chlorophenoxy)-2-methyl-, ethyl ester]
IC50 [1, 7]: > 100 µg/mL
IC50 [2, 8]: > 100 µg/mL

COCc1c(C(C)C)nc(C(C)C)c(/C=C/[C@@H](O)C[C@@H](O)CC(=O)O)c1-c1ccc(F)cc1 [Baycol, 7-[4-(4-fluorophenyl)-5-(methoxymethyl)-2,6-bis(1-methylethyl)-3-pyridinyl]-3,5-dihydroxy-, monosodium salt, [S-(R*,S*-(E))]]-]
IC50 [1, 7]: 13 µg/mL
IC50 [2, 8]: 7.7 µg/mL
IC50 ([4]; read-out: IC50 243 As 10-3): 52 µg/mL

CN(C/C=C/C#CC(C)(C)C)Cc1cccc2ccccc12 [Lamisil, 1-Naphthalenemethanamine, N-(6,6-dimethyl-2-hepten-4-ynyl)-N-methyl-, (E)-]
IC50 [1, 7]: 1.3 µg/mL (≈ 4.46 µM)
IC50 [2, 8]: 86 µg/mL (≈ 295 µM)
IC50 [3, 9]: 77 µg/mL (≈ 264 µM)
IC50 ([4]; read-out: IC50 243 As 10-3): > 100 µg/mL

Cc1ccc(C)c(OCCCC(C)(C)C(=O)O)c1 [Lopoid, Pentanoic acid, 5-(2,5-dimethylphenoxy)-2,2-dimethyl-]
IC50 [1, 7]: > 100 µg/mL
IC50 [2, 8]: > 100 µg/mL

Nc1nc(N)nc(Nc2ccc([As]=O)cc2)n1 (stereo not shown) [Melarsen Oxide]
IC50 ([1]; 48 h, read-out: IC50 EATRO 110): 0.00077 µg/mL
IC50 ([2]; 48 h, read-out: IC50 KETRI 243): 0.0025 µg/mL
IC50 ([3]; 48 h, read-out: IC50 KETRI 269): 0.0066 µg/mL
IC50 [4, 10]: 0.0072 µg/mL

CCN(C/C=C/C#CC(C)(C)C)Cc1cccc(OCc2cc(-c3ccsc3)cs2)c1 [NB-598]
IC50 (Squalene Oxidase): 0.75 nM

CN(C/C=C/c1ccccc1)Cc1cccc2ccccc12 [Naftifine, 1-Naphthalenemethanamine, N-methyl-N-(3-phenyl-2-propenyl)-(E)]
IC50 (Squalene Oxidase): 930 nM

N=C(N)c1ccc(OCCCCCOc2ccc(C(=N)N)cc2)cc1 [Pentamidine]
IC50 ([1]; Table 1, 48 hr cultures, HMI-18 medium, read-out: IC50 EATRO 110): 0.00048 µg/mL (≈ 0.00141 µM)
IC50 ([2]; Table 1, 48 hr cultures, HMI-18 medium, read-out: IC50 KETRI 243): 0.00186 µg/mL (≈ 0.00546 µM)
IC50 ([3]; Table 1, 48 hr cultures, HMI-18 medium, read-out: IC50 KETRI 269): 0.00192 µg/mL (≈ 0.00564 µM)
IC50 [4, 10]: 0.003 µg/mL (≈ 0.00881 µM)

CC[C@H](C)C(=O)O[C@H]1C[C@H](O)C=C2C=C[C@H](C)[C@H](CC[C@@H](O)C[C@@H](O)CC(=O)O)[C@H]21 [Pravachol, [1S-(1-alpha(beta-S*,delta-S*),2-alpha, 6-alpha,8-beta(R*),8a-alpha]]-1,2,6,7,8,8a-hexahydro-2-methyl-8-(2-methyl-1-oxobutoxy)-beta,delta,6-trihydroxy-1-Naphthaleneheptanoic acid monosodium salt]
IC50 [1, 7]: > 100 µg/mL
LDL increased ([5]; 0.1 mg/ml pravastatin): 119%
concentration that increased cholesterol esterification [5]: ≤ 0.19 mg/mL
concentration that inhibited cholesterol esterification [5]: > 0.19 mg/mL
increased LDL degradation ([5]; humans, 40 mg/day for 8 weeks): 57%
inhibited cholesterol synthesis ([5]; humans, 40 mg/day for 8 weeks): 55-62%
IC50 [2, 8]: > 100 µg/mL

CC(=O)OC1OC(OC2C(OC3CC[C@@]4(C)C(=CCC5C4CC[C@@]4(C)C5CC5OC6(CC[C@@H](C)CO6)[C@@H](C)[C@@]54O)C3)OC(CO)C(O)C2OC2OC(C)C(O)C(O)C2O)C(O)C(O)C1O (stereo partly shown) [SU-1461, Mannispirostan A]
IC50 ([1]; Table 2, secondary extracts, * extracts precipitated in medium after 24 h, read-out: IC50 T.b. brucei 110): 6.4 µg/mL (≈ 6.89 µM)

C=C(CC[C@]12O[C@H](C(=O)O)[C@@](O)(C(=O)O)[C@](C(=O)O)(O1)[C@H](OC(=O)/C=C/[C@@H](C)C[C@@H](C)CC)[C@H]2O)[C@@H](OC(C)=O)[C@H](C)Cc1ccccc1 [Squalestatin 1]
IC50 (Squalene Synthetase): 15.2 nM

C=C(CC[C@]12O[C@H](C(=O)O)[C@@](O)(C(=O)O)[C@](C(=O)O)(O1)[C@H](OC(=O)/C=C/[C@@H](C)C[C@@H](C)CC)[C@H]2O)[C@@H](O)[C@H](C)Cc1ccccc1 [Squalestatin 2]
IC50 (Squalene Synthetase): 15.1 nM

C=C(CC[C@]12O[C@H](C(=O)O)[C@@](O)(C(=O)O)[C@](C(=O)O)(O1)[C@H](O)[C@H]2O)[C@@H](OC(C)=O)[C@H](C)Cc1ccccc1 [Squalestatin 3]
IC50 (Squalene Synthetase): 5.9 nM

C=C(CC[C@]12O[C@H](C(=O)O)[C@@](O)(C(=O)O)[C@](C(=O)O)(O1)[C@H](OC(=O)/C=C/[C@@H](C)C[C@@H](C)CC)[C@H]2O)[C@@H](OC(C)=O)[C@H](C)Cc1ccccc1 [Zaragozic acid A]
IC50 (Squalene Synthetase): 0.078 nM

C/C=C/CCCC/C=C/CCCCC(=O)O[C@@H]1[C@@H](O)[C@@]2(CCC(C)C(O)C(C)C/C=C/c3ccccc3)O[C@H](C(=O)O)[C@@](O)(C(=O)O)[C@]1(C(=O)O)O2 (stereo partly shown) [Zaragozic acid B]
IC50 (Squalene Synthetase): 0.029 nM

CC(=O)O[C@H](CCC[C@]12O[C@H](C(=O)O)[C@@](O)(C(=O)O)[C@](C(=O)O)(O1)[C@H](OC(=O)CC/C=C/[C@H](C)CCCc1ccccc1)[C@H]2O)[C@H](C)Cc1ccccc1 [Zaragozic acid C]
IC50 (Squalene Synthetase): 0.045 nM

CC1=C(/C=C/C(C)=C/C=C/C(C)=C/C=C/C=C(C)/C=C/C=C(C)/C=C/C2=C(C)CCCC2(C)C)C(C)(C)CCC1 [beta-carotene]
cholesterol synthesis inhibited from acetate (J-774 A.1 macrophages): 63%

C[C@@](O)(CCO)CC(=O)O [mevalonic acid]
logarithmic phase growth longer than unsupplemented cultures (Leishmania): 2 fold
duration of logarithmic phase growth (Leishmania; unsupplemented ended at 4-5 days): > 10 days

— patent publication US6403576B1, “Antifungal and antiparasitic compounds” (priority 1998, dated 2002)
